# Measurements reported in patent publication EP2161029A1, “Composition comprising peptides” (Unilever N.V., priority 2008, dated 2010).
# Peptide text beside a SMILES is read from it.
# Experimental: The pH of simulated gastric fluid (SGF, 0.15 M NaCl, pH 2.5) was increased to 7.5 with […] (40 mM), and the following compounds were added to adjust the pH to 6.8 and simulate a duodenal-jejunal environment and create simulated small intestinal fluid (SIF): (i) a bile salt mixture containing equimolar quantities (0.125 M) of sodium taurocholate and glycodeoxycholic acid in NaHC03 (1 M), (ii) solutions of pancreatin from porcine pancreas (9 mg/mL) in water was prepared and added at approximately physiological ratios. The pH was adjusted to 6.8 with HCl (0.1 M). Peptides were dissolved in SIF at a final peptide concentration of 50 µM. Aliquots (1 mL) were prepared for sampling at different time points. Simulated intestinal digestion was carried out at 37°C, and aliquots (1 mL) were taken at 0, 5, 15, and 60 min after the start of the experiment. After peptide hydrolysis, digestive enzymes were inactivated at 95°C for 15 min and samples were cooled immediately on ice water and stored at -20 °C until further analysis.
# Quantification of dipeptides derived from digestion were performed using a liquid chromatography multiple reaction ion monitoring-mass spectrometry (LC-MRM-MS) method as described van Platerink CJ, Janssen HG, Horsten R, Haverkamp J. Quantification of ACE inhibiting peptides in human plasma using high performance liquid chromatography-mass spectrometry. J Chromatogr B Analyt Technol Biomed Life Sci 2006,830:151-157. Peptide separation was performed on an Atlantis Hilic Silica column (2.1 x 150 mm, 3 µm particle size) and a Micromass Quattro-II (Milford MA, USA) with HP1100LC system (Hewlett-Packard, USA). The gradient started at 100% 0.1% trifluoro acetic acid in Milli-Q water and ended at 70% 0.1 % trifluoro acetic acid in acetonitrile. To support the ionization, a 70/30 mixture of propionic acid and propanol-2 was added postcolumn at a flow rate of 50 mL·min-1. All analyses were conducted on an Alliance 2795 HPLC (Waters, Milford MA, USA) combined with a Quattro Premier triple quadrupole mass spectrometer from the same supplier.
# An intestinal stability data set consisting of 228 dipeptides was generated based on the results from the simulated digestion experiments. The area under the time - peptide concentration curve was calculated and used for further analysis and modelling. An ACE inhibitory dipeptide database consisting of 228 dipeptides was constructed.
# For each peptide the relative stability (in % of initial dipeptide concentration) was plotted against time and the area under the curve (AUC) was calculated.
Structure (SMILES),Stability observed AUC,AUC [units],intestinal stability (in words)
NC(N)=NCCC[C@H](N)C(=O)N[C@@H](Cc1c[nH]c2ccccc12)C(=O)O [Arg-Trp] (H-Arg-Trp-OH),265±10,–,–
NC(=O)C[C@H](N)C(=O)N[C@@H](Cc1ccc(O)cc1)C(=O)O [Asn-Tyr] (H-Asn-Tyr-OH),240±12,–,–
"N[C@@H](CC(=O)O)C(=O)N1CCC[C@H]1C(=O)O [DP, Asp-Pro] (H-Asp-Pro-OH)",–,> 5900,–
N[C@@H](CC(=O)O)C(=O)N[C@@H](Cc1c[nH]c2ccccc12)C(=O)O [DW] (H-Asp-Trp-OH),–,–,high intestinal stability
"C[C@H](NC(=O)CN)C(=O)O [GA, Gly-Ala] (H-Gly-Ala-OH)",–,> 5900,–
NCC(=O)N[C@@H](CS)C(=O)O [GC] (H-Gly-Cys-OH),–,–,high intestinal stability
NCC(=O)N[C@@H](CC(N)=O)C(=O)O [GN] (H-Gly-Asn-OH),–,–,high intestinal stability
"CC(C)[C@H](NC(=O)CN)C(=O)O [GV, Gly-Val] (H-Gly-Val-OH)",–,> 5900,–
N=C(N)NCCC[C@H](NC(=O)CN)C(=O)O [Gly-Arg] (H-Gly-Arg-OH),4622±1283,–,–
O=C(O)[C@H](Cc1c[nH]c2ccccc12)NC(=O)[C@@H]1CCCN1 [PW] (H-Pro-Trp-OH),–,–,high intestinal stability
N[C@@H](CO)C(=O)N1CCC[C@H]1C(=O)O [Ser-Pro] (H-Ser-Pro-OH),4887±639,–,most intestinal stable dipeptide
NC(=O)C[C@H](NC(=O)[C@@H](N)Cc1c[nH]c2ccccc12)C(=O)O [Trp-Asn] (H-Trp-Asn-OH),4812±901,–,–
N[C@@H](Cc1c[nH]c2ccccc12)C(=O)NCC(=O)O [Trp-Gly] (H-Trp-Gly-OH),4280±721,–,–
N[C@@H](Cc1c[nH]c2ccccc12)C(=O)N[C@@H](Cc1c[nH]cn1)C(=O)O [Trp-His] (H-Trp-His-OH),2934±800,–,–
N[C@@H](Cc1c[nH]c2ccccc12)C(=O)N1CCC[C@H]1C(=O)O [Trp-Pro] (H-Trp-Pro-OH),4606±129,–,–
C[C@H](NC(=O)[C@@H](N)Cc1ccc(O)cc1)C(=O)O [Tyr-Ala],4593±1930,–,–
N[C@@H](Cc1ccc(O)cc1)C(=O)NCC(=O)O [Tyr-Gly],3384±475,–,high stability
N[C@@H](Cc1ccc(O)cc1)C(=O)N1CCC[C@H]1C(=O)O [Tyr-Pro] (H-Tyr-Pro-OH),4187±399,–,–
CC(C)[C@H](N)C(=O)N[C@@H](Cc1ccc(O)cc1)C(=O)O [Val-Tyr] (H-Val-Tyr-OH),373±27,–,–
